The text below walks through data of ChEMBL document CHEMBL1201862, “PubChem BioAssay data set” (2004).

Test systems include SF-268; EKVX; Malme-3M; KM12; HT-29; K562; SNB-19; A549; NCI-H522; HL-60; DU-145; SK-MEL-5; UO-31; SF-295; MCF7; HOP-62; OVCAR-8; NCI/ADR-RES; HCT-15; T47D.
Assay in all cases: NCI tumour cell line growth inhibition, 48 h

The structures appear in SMILES notation.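 The compound was tested at five concentrations on cells cultured in 96-well plates, with a 48-hour exposure period. The concentration for 50% growth inhibition is given as GI50.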 The source made the active and inactive calls. No stated cut-off is given here; in the data, active = GI50 up to about 1.1 µM and inactive = higher.

Turning to `N=C(N)NS(=O)(=O)c1ccc(NNc2c3ccccc3nc3c(C(=O)Nc4ccc(S(=O)(=O)Nc5ncccn5)cc4)cccc23)cc1`, the GI50 with SF-268 was 47.2 µM (inactive); in the experiment on EKVX, 31.8 µM (inactive); in the experiment on Malme-3M, 22.1 µM (inactive); with KM12, 30.6 µM (inactive); with HT-29, 22.9 µM (inactive); with K562, 27.2 µM (inactive). Further, the GI50 in the experiment with SNB-19 was 50.1 µM (inactive); in the experiment on A549, 47.8 µM (inactive); with NCI-H522 it was 19.3 µM (inactive); with HL-60, 38.2 µM (inactive); in the experiment with DU-145 it was 60.1 µM (inactive); with SK-MEL-5, 26.6 µM (inactive). The GI50 in the experiment on UO-31 was 22.4 µM (inactive); in the experiment on SF-295, 40.2 µM (inactive); in the experiment on MCF7, 31.5 µM (inactive); in the experiment on HOP-62 it was 45.3 µM (inactive); in the experiment with OVCAR-8, 29.4 µM (inactive); with NCI/ADR-RES, > 100 µM (inactive). Besides, the figures for the GI50 in the experiment with HCT-15 and in the experiment on T47D were 34.1 µM and 39 µM (inactive), respectively.

`COc1ccc(/C=C/C(=O)c2cc(C(C)(C)C)c(O)c(C(C)(C)C)c2)cc1OC`: the GI50 in the experiment with SF-268 was 17.9 µM (inactive); in the experiment with EKVX, 11.2 µM (inactive); with Malme-3M, 61.2 µM (inactive); in the experiment on KM12 it was 4.36 µM (inactive); in the experiment on HT-29, 4.18 µM (inactive); in the experiment with K562 it was 3.12 µM (inactive). Besides, the GI50 in the experiment with SNB-19 was 24.8 µM (inactive); with A549 it was 8.59 µM (inactive); with NCI-H522, 5.61 µM (inactive); with HL-60, 2.84 µM (inactive); with DU-145, 10 µM (inactive); in the experiment with SK-MEL-5, 6.75 µM (inactive). Moreover, the GI50 in the experiment on UO-31 was 5.16 µM (inactive); with SF-295, 6.52 µM (inactive); in the experiment on MCF7 it was 4.29 µM (inactive); in the experiment with HOP-62, 23 µM (inactive); in the experiment on OVCAR-8, 10.5 µM (inactive); in the experiment on NCI/ADR-RES it was 4.85 µM (inactive). For the same molecule, the values for the GI50 with HCT-15 and with T47D were 5.68 µM and 3.29 µM (inactive), respectively.

In the case of `COc1cc(C2c3cc4c(cc3OC(N3CCOCC3)C2C)OCO4)ccc1O` (stereo not given), the GI50 is 35.2 µM (inactive) with SF-268; 36.1 µM (inactive) with EKVX; 10.9 µM (inactive) in the experiment with Malme-3M; 7.83 µM (inactive) with KM12; 23.4 µM (inactive) in the experiment on HT-29; 4.35 µM (inactive) in the experiment on K562. In addition, the GI50 in the experiment with SNB-19 is 24.4 µM (inactive); in the experiment on A549, 13.4 µM (inactive); with NCI-H522, 8.15 µM (inactive); in the experiment with HL-60, 3.72 µM (inactive); with DU-145 it was 28.7 µM (inactive); in the experiment on SK-MEL-5 it was 9.53 µM (inactive). The GI50 in the experiment with UO-31 was 16 µM (inactive); in the experiment on SF-295 it was 4.31 µM (inactive); in the experiment with MCF7, 5.98 µM (inactive); with HOP-62 it was 11.7 µM (inactive); in the experiment on OVCAR-8, 26.9 µM (inactive); with NCI/ADR-RES it was 5.96 µM (inactive). For the same molecule, the GI50 with HCT-15 was 4.98 µM; in the experiment on T47D, 10.3 µM (inactive).

As for `OC1(c2ccccc2)CC2CCC(C1)N2CCCC(O)(c1ccccc1)c1ccccc1` (stereo not given), the GI50 is 13.4 µM (inactive) with SF-268; 16.5 µM (inactive) in the experiment with EKVX; 15.9 µM (inactive) with Malme-3M; 15.3 µM (inactive) in the experiment with KM12; 2.78 µM (inactive) with HT-29; 4.99 µM (inactive) in the experiment with K562. Also, the GI50 is 20.7 µM (inactive) in the experiment with SNB-19; 17.1 µM (inactive) in the experiment with A549; 10.2 µM (inactive) in the experiment with NCI-H522; 22.9 µM (inactive) with HL-60; 21.4 µM (inactive) in the experiment on DU-145; 3.2 µM (inactive) with SK-MEL-5. Besides, the GI50 was 7.55 µM (inactive) in the experiment with UO-31; 3.33 µM (inactive) in the experiment with SF-295; 16.1 µM (inactive) with MCF7; 15.5 µM (inactive) in the experiment on HOP-62; 19.2 µM (inactive) with OVCAR-8; 17.7 µM (inactive) with NCI/ADR-RES. For the same molecule, the GI50 in the experiment with HCT-15 is 14.2 µM; in the experiment on T47D it was 21.3 µM (inactive).

In the case of `CNNC1=NS(=O)(=O)c2cc(C#N)c(Cl)cc2S1`, the GI50 in the experiment on SF-268, with EKVX, in the experiment on Malme-3M, with KM12, in the experiment on HT-29 and in the experiment on K562 was > 10 µM (inactive) in each case. Also, the GI50 in the experiment on SNB-19, with A549, with NCI-H522, in the experiment on HL-60, in the experiment on DU-145 and with SK-MEL-5 was > 10 µM (inactive) each time. The GI50 was 1.68 µM (inactive) in the experiment on UO-31; > 10 µM (inactive) in the experiment on SF-295; 0.00303 µM (active) in the experiment with MCF7; > 10 µM (inactive) with HOP-62; > 10 µM (inactive) in the experiment on OVCAR-8; > 10 µM (inactive) with NCI/ADR-RES. Moreover, the GI50 in the experiment on HCT-15 is above 10 µM; with T47D it was > 10 µM (inactive).

For the molecule `Nc1nc(O)c2[nH]nnc2n1` [8-AZAGUANINE], the GI50 in the experiment with SF-268 was 0.406 µM (active); in the experiment with EKVX it was 11.4 µM (inactive); in the experiment with Malme-3M, 0.352 µM (active); in the experiment on KM12, 34.1 µM (inactive); with HT-29, 26.1 µM (inactive); with K562, 0.268 µM (active). The GI50 in the experiment on SNB-19 is 42.7 µM (inactive); in the experiment on A549, 33 µM (inactive); in the experiment on NCI-H522, 13.9 µM (inactive); in the experiment with HL-60 it was 0.326 µM (active); in the experiment on DU-145 it was 0.684 µM (active); in the experiment on SK-MEL-5, 0.748 µM (active). For the same molecule, the GI50 was 0.366 µM (active) in the experiment on UO-31; 3.11 µM (inactive) with SF-295; 40.8 µM (inactive) in the experiment on MCF7; 0.326 µM (active) in the experiment on HOP-62; 0.551 µM (active) in the experiment with OVCAR-8; 1.93 µM (inactive) in the experiment with NCI/ADR-RES. Besides, the GI50 in the experiment with HCT-15 was 24 µM; with T47D it was 3.44 µM (inactive).

As to `O[C@H]1[C@H]2c3cc4c(cc3CN3CCC(=C[C@@H]1O)[C@H]23)OCO4` [LYCORINE], the GI50 in the experiment with SF-268 is 0.802 µM (active); in the experiment with EKVX, 2.39 µM (inactive); in the experiment on Malme-3M, 1.92 µM (inactive); in the experiment with KM12 it was 2.7 µM (inactive); in the experiment on HT-29, 1.46 µM (inactive); in the experiment with K562 it was 1.2 µM (inactive). For the same molecule, the GI50 in the experiment with SNB-19 was 2.11 µM (inactive); in the experiment with A549 it was 1.39 µM (inactive); in the experiment with NCI-H522 it was 1.05 µM (active); in the experiment with HL-60 it was 2.14 µM (inactive); in the experiment with DU-145, 1.32 µM (inactive); in the experiment on SK-MEL-5, 1.42 µM (inactive). Further, the GI50 was 1.47 µM (inactive) in the experiment with UO-31; 2.69 µM (inactive) in the experiment on SF-295; 0.201 µM (active) in the experiment on MCF7; 1.78 µM (inactive) in the experiment with HOP-62; 1.53 µM (inactive) in the experiment with OVCAR-8; 2.31 µM (inactive) in the experiment with NCI/ADR-RES. For the same molecule, the GI50 with HCT-15 is 1.33 µM; with T47D, 2.49 µM (inactive).
